# Experiments:
# [1] = test system: Venturia inaequalis; assay: Fungicidal activity against Venturia inaequalis on Malus sp. (apple cuttings, protectant spray); format: in vivo; set-up: key: 0 = no infection; 1 = 1-10% infection; 2 = 11-40% infection; 3 = 41-100% infection; details: extent of infection score; apple cuttings variety Morgenduft; test compound 400 ppm; infected after 24 hours; assessed after about 14 days
# Procedure: Fungicidal activity against Venturia inaequalis on Malus sp.
# Apple cuttings of the variety Morgenduft, which are about 6 weeks old, were treated with a solution of the test compound (400 ppm) in water/acetone/Triton X or water/methanol/Triton X. After 24 hours, the plants were infected with a conidia suspension of Venturia inaequalis (about 50,000 conidia/ml), incubated in a dark climatic chamber at a relative humidity of 100% for 48 hours and then kept at a relative humidity of 95-99% and temperature of 18-20°C during the day and 13°C during the night for about 14 days. The extent of infection was assessed according to the following scheme:- • 0 = no infection • 1 = 1-10% infection • 2 = 11-40% infection • 3 = 41-100% infection The results of these tests are set out in Table II below:-
# [2] = test system: Botrytis cinerea; assay: MIC determination by serial dilution in microtitre plates; format: cell-based; details: lowest concentration without mycelial growth, V8 juice nutrient solution, 20°C, 6-8 days, visual inspection
# Procedure: (§1) Determination of MIC-Values of compounds against various phytopathogenic fungi
# (§2) The MIC (Minimum Inhibition Concentration)-values were determined by serial dilution tests using 48-well microtitre plates. The dilution of the test compounds in the nutrient solution and the distribution to the wells were carried out by a TECAN RSP 5000 robotic sample processor.
# (§3) For preparation of the nutrient solution, V8 juice (Trade Mark) was neutralised with calcium carbonate and centrifuged. The supernatant was diluted with distilled water (1:5) to the final concentration.
# (§4) The fungi (Alternaria solani, Botrytis cinerea, Septoria nodorum) were added into the wells as a droplet of spore suspension. The microtitre plates were then incubated at 20°C for 6-8 days. The MIC-value was determined by visual inspection of the plates. In the case of Alternaria solani and Botrytis cinerea, the lowest concentration in the dilution series without mycelial growth was defined to be the MIC-value. For Septoria nodorum, no MIC-value but only a strong inhibition of growth was regularly observed.
# [3] = test system: Alternaria solani; assay: as above; format: cell-based; details: lowest concentration without mycelial growth, V8 juice nutrient solution, 20°C, 6-8 days, visual inspection
# Procedure: as §1, §2, §3, §4
# [4] = test system: Pyricularia oryzae; format: in vivo; details: rice seedlings, foliar spray 1000 ppm, direct therapeutic; disease control rating
# [5] = test system: Rhizoctonia solani; assay: Activity against Rhizoctonia in-vitro (RSI), Example 120; format: cell-based; details: 50 ppm compound, 2.5% acetone, 20°C, 10 days, mycelial growth, rating
# [6] = test system: Leptosphaeria nodorum; assay: Activity against wheat leafspot (LN), Example 120; format: in vivo; details: wheat plants, foliar spray 1000 ppm, direct therapeutic; disease control rating
# [7] = test system: Botrytis cinerea; assay: Direct protectant activity against broad bean grey mould (BCB), Example 120; format: in vivo; details: broad bean plants, foliar spray 1000 ppm, disease control rating
# [8] = test system: Alternaria solani; assay: Activity against tomato early blight (AS), Example 120; format: in vivo; details: tomato seedlings, foliar spray as described under (a) (1000 ppm), contact prophylactic; disease control rating
# [9] = test system: Erysiphe graminis f.sp. hordei; assay: Activity against barley powdery mildew (EG), Example 120; format: in vivo; details: barley seedlings, foliar spray 1000 ppm, direct therapeutic; disease control rating
# [10] = test system: Pseudocercosporella herpotrichoides; assay: Activity against wheat eyespot in-vitro (PHI), Example 120; format: cell-based; details: 50 ppm compound, 2.5% acetone, 20°C, 12 days, mycelial growth, rating
structure (smiles),measurement,setting,value
"Cc1ccc(-c2c(Cl)nc3ncnn3c2NC2CCCC2)cc1 [Example 1, 5-chloro-6-(4-methylphenyl)-7-cyclo-pentylamino-1,2,4-triazolo[1,5-a]pyrimidine]",Activity,[1],1 (1 = 1-10% infection)
same,MIC,[2],12.5 µg/mL
same,MIC,[3],1.56 µg/mL
"Brc1nc2ncnn2c(NC2CCCC2)c1-c1ccccc1 [Example 2, 5-bromo-6-phenyl-7-cyclopentylamino-1,2,4-triazolo[1,5-a]pyrimidine]",Activity,[1],0
"COc1ccc(-c2cnc3ncnn3c2NC2CCCC2)cc1 [Example 3, 6-(4-methoxyphenyl)-7-cyclopentylamino-1,2,4-triazolo[1,5-a]pyrimidine]",Activity,[1],2.5
"CNc1nc2ncnn2c(NC2CCCC2)c1-c1ccccc1 [Example 4, 5-methylamino-6-phenyl-7-cyclopentylamino-1,2,4-triazolo[1,5-a]pyrimidine]",Activity,[1],2.3
"Clc1ccccc1-c1c(I)nc2ncnn2c1NC1CCCC1 [Example 6, 5-iodo-6-(2-chlorophenyl)-7-cyclopentylamino-1,2,4-triazolo[1,5-a]pyrimidine]",MIC,[2],6.25 µg/mL
same,MIC,[3],3.13 µg/mL
CC(C)Nc1c(-c2ccccc2F)c(Cl)nc2ncnn12 [Example 41],Fungicidal Activity PO,[4],2 (2 = greater than 80% disease control)
same,Fungicidal Activity RSI,[5],2 (2 = greater than 80% disease control)
same,Fungicidal Activity LN,[6],2 (2 = greater than 80% disease control)
same,Activity,[1],0
same,Fungicidal Activity BCB,[7],2 (2 = greater than 80% disease control)
same,Fungicidal Activity AS,[8],2 (2 = greater than 80% disease control)
same,Fungicidal Activity EG,[9],2 (2 = greater than 80% disease control)
same,Fungicidal Activity PHI,[10],1 (1 = about 50-80% disease control)
same,MIC,[2],25 µg/mL
same,MIC,[3],12.5 µg/mL

# From patent EP0782997A2, “Triazolopyrimidine derivatives” (SHELL INTERNATIONALE RESEARCH MAATSCHAPPIJ B.V., priority 1991, dated 1993)
